Experimental data published in paper PMC8117417, “Novel Trifluoromethyl Pyrimidinone Compounds With Activity Against Mycobacterium tuberculosis” (Frontiers in Chemistry, 2021).
Values after ≈ are worked out from the molar mass of the structure shown. Values joined by “and” are separate entries in the source; they are usually repeats but may differ in a detail not shown here. Equal values may be shown once.

Columns and labels:
[1] = tested on: Staphylococcus aureus RN4220; assay: Spectrum: MIC99 on solid medium, agar serial dilution; assay type: cell-based; parameters: unit not given here; conditions: minimum concentration required to reduce CFUs by 99%, values of two independent runs
[2] = tested on: Mycobacterium smegmatis mc^2155; assay: as above; assay type: cell-based; parameters: unit not given here; conditions: minimum concentration required to reduce CFUs by 99%, two independent runs
Escherichia coli DH5α = assay: as above; assay type: cell-based; parameters: unit not given here; conditions: minimum concentration required to reduce CFUs by 99%, two independent runs
M. tuberculosis H37Rv = assay: Minimum inhibitory concentration (IC90) against fluorescent M. tuberculosis in liquid culture; conditions: for MIC: MTB IC90 assay, Figure 1 primary hits and reference drugs in this assay; for IC90: read-out: MTB IC90
[3] = tested on: Saccharomyces cerevisiae Y187; assay: Spectrum: MIC99 on solid medium, agar serial dilution; assay type: cell-based; parameters: unit not given here; conditions: minimum concentration required to reduce CFUs by 99%, values of two independent runs
K. pneumoniae = assay: as above; assay type: cell-based; parameters: unit not given here; conditions: minimum concentration required to reduce CFUs by 99%, two independent runs
Description: Minimum inhibitory concentration to inhibit growth of 99% (MIC99) on solid medium was determined using the agar serial dilution method. Late log phase cultures were plated at ~10^5 colony-forming units (CFU)/mL onto solid medium containing 2-fold serial dilutions of compounds. The MIC99 is defined as the lowest concentration with ≤1% growth.

HepG2 human liver cells = assay: Cytotoxicity against HepG2 cells (CellTiter-Glo); assay type: cell-based; conditions: concentration required to inhibit growth of HepG2 cells by 50%, 72 h exposure
Description: Cytotoxicity was measured after 72 h of compound exposure at 37°C and 5% CO2 using CellTiter-Glo (Promega).

[4] = tested on: Bacillus subtilis Marburg; assay: Spectrum: MIC99 on solid medium, agar serial dilution; assay type: cell-based; parameters: unit not given here; conditions: minimum concentration required to reduce CFUs by 99%, values of two independent runs
[5] = tested on: Pseudomonas aeruginosa BAA 47; assay: Spectrum: MIC99 on solid medium, agar serial dilution; assay type: cell-based; parameters: unit not given here; conditions: minimum concentration required to reduce CFUs by 99%, two independent runs
[6] = concentration required to inhibit M. tuberculosis growth by 90%, aerobic culture, 5 days, 7H9-OADC-Tw

Row | SMILES | MIC99 S. aureus [1] | MIC99 M. smegmatis [2] | MIC99 E. coli (Escherichia coli DH5α) | MIC (M. tuberculosis H37Rv) | IC90 (M. tuberculosis H37Rv; [6]) | MIC99 S. cerevisiae [3] | MIC99 K. pneumoniae (K. pneumoniae) | IC50 (HepG2 human liver cells; Homo sapiens, HepG2, 72 h) | MIC99 B. subtilis [4] | melting point | MIC99 P. aeruginosa [5] | IC50 (HepG2 human liver cells) | MTB IC90 (M. tuberculosis H37Rv; [6]) | HepG2 IC50 (HepG2 human liver cells)
1 | O=c1[nH]c(-c2ccccn2)nc(C(F)(F)F)c1Cc1ccc(F)cc1 [Compound 5, 5-(4-Fluorobenzyl)-2-(Pyridin-2-yl)-6-(Trifluoromethyl)Pyrimidin-4(3H)-One] | 1.6, 1.6 | >100 | >100 | 1.7 ± 0.41 µM (≈ 0.594 µg/mL) | 1.7 ± 0.41 µM | 3.1, 3.1 | >100 | 3.2 ± 1.5 µM | 12.5 and 6.3 | 183 to 185 °C | >100 |  |  | 
2 | Cc1c(C(F)(F)F)nc(-c2ccccn2)[nH]c1=O [Compound 10, 5-Methyl-2-(Pyridin-2-yl)-6-(Trifluoromethyl)Pyrimidin-4(3H)-One] | 12.5, 12.5 | 25 | >100 | 2.9 ± 0.47 µM (≈ 0.74 µg/mL) | 2.9 µM | 6.3 and 12.5 | >100 | 7.3 µM | 12.5, 12.5 |  | >100 | 5.4 ± 3.1 µM |  | 
3 | Cc1c(C(F)(F)F)nc(-c2ncccc2O)[nH]c1=O [Compound 33, 2-(3-Hydroxypyridin-2-yl)-5-Methyl-6-(Trifluoromethyl)Pyrimidin-4(3H)-One] | 3.1, 3.1 | 25 | >100 |  | 2.5 ± 1.1 µM | 3.1, 3.1 | >100 | 3.2 ± 1.6 µM |  | 176 to 178 °C | >100 |  |  | 
4 | Cc1c(C(F)(F)F)nc(-c2ccccc2C(F)(F)F)[nH]c1=O [Compound 42, 5-Methyl-6-(Trifluoromethyl)-2-(2-(Trifluoromethyl)Phenyl)pyrimidin-4(3H)-One] |  |  |  |  | > 20 µM |  |  | > 100 µM |  | 168 to 170 °C |  |  |  | 
5 | Cc1cccc(C)c1-c1nc(C(F)(F)F)c(C)c(=O)[nH]1 [Compound 43, 2-(2,6-Dimethylphenyl)-5-Methyl-6-(Trifluoromethyl)Pyrimidin-4(3H)-One] |  |  |  |  | > 20 µM |  |  | > 100 µM |  | 174 to 175 °C |  |  | no antibacterial activity | no cytotoxicity
6 | Cc1c(C(F)(F)F)nc(-c2ccccc2OC(F)(F)F)[nH]c1=O [Compound 44, 5-Methyl-2-(2-(Trifluoromethoxy)Phenyl)-6-(Trifluoromethyl)Pyrimidin-4(3H)-One] |  |  |  |  | > 20 µM |  |  | > 100 µM |  | 167 to 168 °C |  |  |  | 
7 | Cc1c(C(F)(F)F)nc(-c2ccccc2O)[nH]c1=O [Compound 46, 2-(2-Hydroxyphenyl)-5-Methyl-6-(Trifluoromethyl)Pyrimidin-4(3H)-One] |  |  |  |  | > 20 µM |  |  | 44 ± 7.8 µM |  | 270 to 271 °C |  |  |  | 
8 | Cc1c(Cc2ccccc2)nc(-c2ccccn2)[nH]c1=O [Compound 47, 6-Benzyl-5-Methyl-2-(Pyridin-2-yl)Pyrimidin-4(3H)-One] |  |  |  |  | 5.7 ± 0.14 µM |  |  | 9.8 ± 5.7 µM |  | 120 to 121 °C |  |  |  | 
9 | Cc1c(-c2ccccc2)nc(-c2ccccn2)[nH]c1=O [Compound 48, 5-Methyl-6-Phenyl-2-(Pyridin-2-yl)Pyrimidin-4(3H)-One] |  |  |  |  | 9.4 ± 0.67 µM |  |  | 9.7 ± 5.5 µM |  | 140 to 141 °C |  |  |  | 
10 | Cc1cnc(-c2ccccn2)[nH]c1=O [Compound 50, 5-Methyl-2-(Pyridin-2-yl)Pyrimidin-4(3H)-One] |  |  |  |  | > 20 µM |  |  | 50 ± 13 µM |  | 148 to 149 °C |  |  |  | 
11 | O=c1[nH]c(-c2ccccn2)nc(C(F)(F)F)c1Cc1ccccc1 [Compound 52, 5-Benzyl-2-(Pyridin-2-yl)-6-(Trifluoromethyl)Pyrimidin-4(3H)-One] |  |  |  |  | 2.8 ± 0.78 µM |  |  | 7.3 ± 4.2 µM |  | 173 to 174 °C |  |  |  | 
12 | O=c1[nH]c(-c2ccccn2)nc(C(F)(F)F)c1-c1ccc(F)cc1 [Compound 53, 5-(4-Fluorophenyl)-2-(Pyridin-2-yl)-6-(Trifluoromethyl)Pyrimidin-4(3H)-One] | 3.1, 3.1 | >100 | >100 |  | 3.8 ± 1.6 µM |  | >100 | 11 ± 6.9 µM | 6.3, 6.3 | 217 to 220 °C | >100 |  |  | 
13 | O=c1[nH]c(-c2ccccn2)nc(C(F)(F)F)c1-c1ccccc1 [Compound 54, 5-Phenyl-2-(Pyridin-2-yl)-6-(Trifluoromethyl)Pyrimidin-4(3H)-One] |  |  |  |  | 4.5 ± 0.14 µM |  |  | 11 µM |  | 258 to 259 °C |  | 10 ± 6.4 µM |  | 
14 | CCc1c(C(F)(F)F)nc(-c2ccccn2)[nH]c1=O [Compound 55, 5-Ethyl-2-(Pyridin-2-yl)-6-(Trifluoromethyl)Pyrimidin-4(3H)-One] | 6.3 and 5.0 | 100 | >100 |  | 3.7 ± 0.26 µM | 3.1 and 5.0 | >100 | 6.1 ± 1.3 µM | 6.3 and 5.0 | 122 to 124 °C | >100 |  |  | 
15 | O=c1[nH]c(-c2ccccn2)nc(C(F)(F)F)c1C1CCCCC1 [Compound 58, 5-Cyclohexyl-2-(Pyridin-2-yl)-6-(Trifluoromethyl)Pyrimidin-4(3H)-One] |  |  |  |  | 4.1 ± 0.28 µM |  |  | 2.9 ± 0.28 µM |  | 220 to 221 °C |  |  |  | 
